According to patent US20110039825A1, “LIGANDS OF ALPHA-ADRENOCEPTORS, DOPAMINE, HISTAMINE, IMIDAZOLINE AND SEROTONIN RECEPTORS AND THEIR USE” (Alla Chem, LLC, priority 2007, published 2011):

What was measured:
[1] = target: T1, recombinant human 5-HT2B receptor (Homo sapiens, UniProt P41595); assay: radioligand binding to serotonin receptor 5-HT2B ([3H] Lysergic acid diethylamide); conditions: 10 μM ligand
T1 construct: expressed in transfected cells; host or cells: CHO-K1
Protocol: Screening of the disclosed compounds for potential ability to interact with serotonin receptor 5-HT2A is carried out by method of radioligand binding. For this purpose membrane species are prepared from CHO-K1 cells comprising recombinant human 5-HT2B receptor by homogenization of recombinant cells in glass homogenizer with the subsequent separation of plasmatic membranes from cell nuclei, mitochondrias and cell wreckages by differential centrifugation. […] After incubation the samples are filtered in vacuo on glass-microfiber filters G/F (Millipor, USA), filters are washed three times with cold solution of medium and radioactivity is measured by scintillation counter MicroBeta 340 (Perkin Elmer, USA). […] Ketanserin is used as positive control. The tested compounds' binding to the receptor is determined by their ability to displace the radioligand and is expressed in percent of displacement (% I). Values of % I are calculated according to the following equation:
wherein: TA—is the overall radioactivity in the presence of radioligand only, CA—is the radioactivity in the presence of radioligand and tested compound and NA—is the radioactivity in the presence of radioligand and Serotonin (10 μM).

[2] = target: T2, serotonin receptor 5-HT1B (Rattus norvegicus, UniProt P28564); assay: radioligand binding to serotonin receptor 5-HT1B ([125I] cyanopindolol); conditions: 10 μM ligand
T2 construct: membrane species are prepared from rat brains (Wistar) by homogenization of species of rat brain-cortices; from tissue; host or cells: rat (Wistar) brain cortex membranes
Protocol: Screening of the disclosed compounds for potential ability to interact with serotonin receptor 5-HT1B is carried out by method of radioligand binding. For this purpose membrane species are prepared from rat brains (Wistar) by homogenization of species of rat brain-cortices in glass homogenizer with the subsequent separation of plasmatic membranes from cell nuclei, mitochondrias and cell wreckages by differential centrifugation. […] After incubation the samples are filtered in vacuo on glass-microfiber filters G/F (Millipor, USA), filters are washed three times with cold solution of medium and radioactivity is measured by scintillation counter MicroBeta 340 (Perkin Elmer, USA). […] Serotonin is used as positive control.
Tested compounds' binding to the receptor is determined by their ability to displace radioligand and expressed in percent of displacement (% I). Values of % I are calculated according to the following equation:
wherein: TA—is overall radioactivity in the presence of radioligand only, CA—is radioactivity in the presence of radioligand and tested compound and NA—is radioactivity in the presence of radioligand and Serotonin (10 μM).

recombinant human 5-HT1A = target: T3, recombinant human 5-HT1A (Homo sapiens, UniProt P08908); assay: radioligand binding to serotonin receptor 5-HT1A ([3H] 8-OH-DPAT); conditions: 10 μM ligand
T3 construct: expressed in transfected cells; host or cells: CHO
T3 sequence (P08908 1-422): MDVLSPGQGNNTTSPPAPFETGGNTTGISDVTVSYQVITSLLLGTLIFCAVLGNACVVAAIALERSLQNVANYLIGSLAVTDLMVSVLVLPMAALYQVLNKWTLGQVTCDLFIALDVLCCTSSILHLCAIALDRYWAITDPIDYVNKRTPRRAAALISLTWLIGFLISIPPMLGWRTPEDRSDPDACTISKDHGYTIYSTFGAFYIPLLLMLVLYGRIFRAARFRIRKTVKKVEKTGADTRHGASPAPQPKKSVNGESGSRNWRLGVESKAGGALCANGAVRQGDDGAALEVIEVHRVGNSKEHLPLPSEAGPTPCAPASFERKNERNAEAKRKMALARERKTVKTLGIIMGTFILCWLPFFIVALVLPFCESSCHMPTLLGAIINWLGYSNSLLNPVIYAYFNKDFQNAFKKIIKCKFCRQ
Excerpt: J Pharmacol Exp Ther. 306(1): 301-309, 2003]. […] Metergoline is used as positive control.

male mice of BALB/c line [3] = assay: Passive Avoidance of mice in the Shuttle Chamber, memory disturbed by Scopolamine; format: in vivo; conditions: Scopolamine 0.3 mg/kg
Protocol: A shuttle chamber (Ugo Basile, Italy) consisted of two sections was used. […] The sections were connected through a hole which could be overlapped by a vertical door. The floor was made of transverse metal bars on which DC current impulses could be fed. Experiments were carried out in aged male mice of BALB/c line weighing 20-24 grams.
Each group consisted of at least 8 animals. Animal was placed in light section, and latent period of the first entry into dark chamber was registered. Then the vertical door was closed and the animal was punished by 0.6 mA DC current for 3 seconds. After that it was taken back to its homecage. In 22-24 hours the same animal was placed again in light section of the shuttle chamber and latent period of its first entry into dark section, the total time of its stay in light section, and the number of entries into dark section, were registered. Each monitoring lasted for 5 minutes.
Testing was carried out during the day time in isolated laboratory using white noise at level of about 70 decibel above human hearing threshold.
Scopolamine causes the disturbance of training (memory loss) that results in […].

male mice of BALB/c line [4] = assay: Mice Behavior in the Elevated Plus Maze; format: in vivo
Excerpt: The length of each arm of the maze was 30 cm, width is 5 cm, and height of the walls was 15 cm. Two opposite arms were closed from both sides and end faces by transparent walls, the other two arms were lit and opened. A mouse was placed in the center of the maze and for the next five minutes the number of entries into opened and closed arms and the time spent in each type of arms was registered. […] The animals usually avoided opened arms (the preference index is between 0.2 and 0.3). Compounds with tranquilizing action increased this index up to 0.5-0.6 or even more and reduced the number of defecations without changing the overall motion activity of the mice (the total number of their entries to the arms).

mice = assay: Mice Training in Morris Water Maze (Scopolamine); format: in vivo; conditions: unitary introduction of active ingredient
Protocol: Mice Training in Morris Water Maze. A round pool which was filled with water at 20-22° C. was used. A round ceramic platform of 14 cm height was placed in the pool. Animals's behavior was registered with automated computer videosystem in combination with software package of movement analysis Any-maze (Stoelting Co., US). Before testing mice suitable for training were selected. That was done by placing the platform 1 cm above the water level and putting an animal on the platform for 20 seconds. Then the mouse was sunk into the water on the opposite side of the pool, allowed to find the platform and climbed it within 60 seconds, where it was left for additional 20 seconds. After that the mouse was repeatedly immersed into water on the opposite side of the pool and allowed to look for platform. If it failed in finding the platform within 60 seconds the experimentator helped it to find the platform and climb it. If the mice could not find the platform itself in two consecutive attempts it was excluded from experiment.
During the next two days the platform was placed 0.5 centimeter lower the water level. Every day the mice were given four attempts for finding the platform within 60 seconds. The time interval between the attempts was 20 seconds, during which the mice stayed on the platform. Every day before the first attempt mouse was placed on the platform for 20 seconds. The time needed for finding and climbing the platform was registered. The animals were sunk in water in 3 different places on the side of the pool opposite to platform. On each day of two-day testing 35-40 minutes before the beginning of training the mice were injected intraintestinally with physiological solution, Scopolamine or Scopolamine in combination with investigated compound. At least 8 animals were used in each group.
On the third day the platform was removed and each animal was placed one time in the pool for a period of 60 seconds. The time each mouse spent in the area where the platform had been located during the previous days was registered. This time interval was regarded as a measure of effectiveness of training fulfilled during the previous two days. The testing was carried out during the day time in isolated laboratory using “white noise” at level of about 70 decibel above the human hearing threshold.

male mice of BALB/c line [5] = assay: Passive Avoidance of mice in the Shuttle Chamber, memory disturbed by MK-801; format: in vivo; conditions: MK-801 0.1 mg/kg
Protocol: The testing was carried out as in example 14. […] Concurrently, physiological solution of MK-801 in combination with active ingredient 1.9 (1) 1/2NDSA was injected intraintestinally to independent group of mice before training

T2 sequence (P28564 whole entry): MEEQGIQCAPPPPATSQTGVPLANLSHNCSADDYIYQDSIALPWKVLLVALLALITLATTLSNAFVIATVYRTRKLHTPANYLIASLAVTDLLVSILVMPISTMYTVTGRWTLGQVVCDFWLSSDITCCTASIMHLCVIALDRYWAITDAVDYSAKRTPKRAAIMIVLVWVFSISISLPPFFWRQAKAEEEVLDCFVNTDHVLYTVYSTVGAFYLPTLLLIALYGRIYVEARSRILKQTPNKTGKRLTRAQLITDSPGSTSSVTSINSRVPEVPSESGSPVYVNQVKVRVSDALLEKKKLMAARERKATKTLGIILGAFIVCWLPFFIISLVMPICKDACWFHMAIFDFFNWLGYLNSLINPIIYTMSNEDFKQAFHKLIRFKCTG
T1 sequence (P41595 whole entry): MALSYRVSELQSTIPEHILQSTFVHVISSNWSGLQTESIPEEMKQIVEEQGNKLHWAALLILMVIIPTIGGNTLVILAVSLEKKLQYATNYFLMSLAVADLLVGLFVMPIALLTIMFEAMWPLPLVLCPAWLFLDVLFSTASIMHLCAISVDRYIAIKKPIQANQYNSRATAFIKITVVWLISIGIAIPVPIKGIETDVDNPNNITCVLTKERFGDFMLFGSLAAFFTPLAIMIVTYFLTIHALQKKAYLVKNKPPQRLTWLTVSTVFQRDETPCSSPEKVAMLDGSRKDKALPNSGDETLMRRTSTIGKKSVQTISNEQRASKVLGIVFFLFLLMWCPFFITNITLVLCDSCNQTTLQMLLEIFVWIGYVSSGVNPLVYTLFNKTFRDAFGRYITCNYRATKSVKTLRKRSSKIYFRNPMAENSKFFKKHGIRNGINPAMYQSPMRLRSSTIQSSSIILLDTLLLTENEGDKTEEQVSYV

| Structure (SMILES) | 5-HT2B % inhibition [1] [%] | 5-HT1B % inhibition [2] [%] | 5-HT1A % inhibition (recombinant human 5-HT1A) [%] | enhancement of memory disturbed by Scopolamine (passive avoidance) (male mice of BALB/c line [3]) | anxiolytic (tranquilizing) action in elevated plus maze (male mice of BALB/c line [4]; doses of 0.05 and 0.1 mg/kg) | memory disorders caused by Scopolamine in Morris water maze (mice) | anxiolytic (tranquilizing) action in elevated plus maze (male mice of BALB/c line [4]; mice BALB/c) | enhancement of memory disturbed by MK-801 (passive avoidance) (male mice of BALB/c line [5]) |
| --- | --- | --- | --- | --- | --- | --- | --- | --- |
| CN1CCc2c(c3cc(F)ccc3n2CCc2ccccc2)C1.Cl [1.1.2(1-6)•HCl] | 85 | 25 | 16 |  |  |  |  |  |
| Cc1ccc2c(c1)c1c(n2CCc2ccc(C)nc2)CCN(C)C1.Cl.Cl [1.1.2(4-2)] |  |  |  | improve memory | analogous action | decreasing memory disorders coused by Scopalomine |  |  |
| CN1CCc2c(c3ccccc3n2Cc2ccccc2)C1 [1.9(1)·1/2NDSA, bis-(5-benzyl-2-methyl-2,3,4,5-tetrahydro-1H-pyrido[4,3-b]indole) naphthalene-1,5-disulfonate] |  |  |  | nootropic action |  |  | anxiolytic (tranquilizing) action which is comparable with the activity of Buspirone and Lorasepam | act as nootropic |
